What was measured:
[1] = tested on: Pediococcus pentosaceus FBB63C; experiment: MIC and MBC by two-fold broth dilution; assay type: cell-based; conditions: APT broth, 24 hours at 32° C.
Listeria monocytogenes [2] = experiment: Activity of PA-1 against Listeria monocytogenes in cheese sauce; assay type: cell-based; conditions: cheese sauce pH 5.25, 4° C., LM 5.3 × 10^3 cells per gram
Procedure: Listeria monocytogenes was added to the cheese sauce (pH 5.25) at a rate of 5.3×10^3 cfu/g of cheese sauce. The bacteriocin powder PA-1 was added to the cheese sauce at a rate of 10 or 50 U/g of sauce. The samples were mixed and incubated at 4° C. and aliquots were removed and examined for growth of Listeria monocytogenes.

[3] = tested on: Listeria monocytogenes LM01; experiment: MIC and MBC by two-fold broth dilution; assay type: cell-based; conditions: APT broth, 24 hours at 32° C.
Procedure: Bacteriocin PA-1 powder was dissolved in APT broth and two-fold serially diluted to concentrations ranging from 1000 U/ml to 2.0 U/ml. Approximately 1×10^3 Listeria monocytogenes/ml were added to each of the tubes which then were incubated for 24 hours at 32° C. The MIC value was the lowest concentration tube displaying no visible turbidity.

Listeria monocytogenes [4] = experiment: Effect of PA-1 powder on an exponential culture (turbidity at 660 nm); assay type: cell-based; conditions: 200 U/ml and 500 U/ml added after 3.75 hours, APT broth, 32° C.
Procedure: The PA-1 powder was added to a L. monocytogenes culture at 200 U(units)/ml or 500 U/ml and turbidity (which is an indicator of the number of cells) was monitored over time at 660 nanometers. The symbols used are , control (no PA-1 added); .circle., 200 U/ml PA-1; .quadrature., 500 U/ml PA-1.
Sterile PA-1 bacteriocin powder was added to an exponential culture of Listeria monocytogenes at a rate of 200 U/ml of broth and 500 U/ml of broth. Listeria monocytogenes was grown in APT broth at 32° C. Absorbance was followed over time at 660 nm.

[5] = cited from earlier work
Listeria monocytogenes [6] = experiment: Activity of PA-1 against Listeria monocytogenes in half and half cream; assay type: cell-based; conditions: half and half cream pH 6.7, 4° C., LM 4.3 × 10^3 cells per ml, PA-1 50 U/ml
Procedure: Listeria monocytogenes was added to the cream (pH 6.7) at a rate of 4.3×10^3 cfu/ml of cream. The bacteriocin powder PA-1 was added to the cream at a rate of 10 or 50 U/ml cream. The samples were mixed and incubated at 4° C. and aliquots were removed and examined for growth of Listeria monocytogenes .

[7] = tested on: Lactococcus, Streptococcus, Staphylococcus, Micrococcus and Lactobacillus strains; conditions: Lactococcus lactis, L. lactis subsp. diacetylactis, L. cremoris, Streptococcus thermophilus, Staphylococcus aureus, xylosus, epidermidis, carnosus, Micrococcus varians, sodonensis, Lactobacillus acidophilus, bulgaricus; cited from earlier work
Listeria monocytogenes [8] = experiment: Activity of PA-1 against Listeria monocytogenes in dressed Cottage cheese; assay type: cell-based
Procedure: Listeria monocytogenes was added to dressed Cottage cheese (pH 5.1) at a rate of 6.5×10^3 cfu/gram of dressed Cottage cheese. The bacteriocin powder to Example 1 (PA-1) was added to the Cottage cheese at a rate of 10 or 50 U (units)/g dressed Cottage cheese. The samples were mixed and incubated at 4° C. and aliquots were removed and plated onto McBride's Agar (Difco, Detroit, Mich.) and incubated at 32° C. and examined for growth of Listeria monocytogenes.

PA-1: bacteriocin of about 16,500 daltons produced by Pediococcus acidilactici NRRL-B-18050 (PAC 1.0); tested as lyophilized culture supernatant powder with nonfat dry milk
MBC ([1]; no CFU on APT agar): 31.3 U/ml
MIC ([1]; no visible turbidity): 7.8 U/ml
Growth of Listeria at 24 h (Listeria monocytogenes [2]; PA-1 10 U/g): 4.0 × 10^2 cfu/g
Growth of Listeria at 24 h (Listeria monocytogenes [2]; PA-1 50 U/g): 0 cfu/g
MBC ([3]; no CFU on APT agar): 7.8 U/ml
MIC ([3]; about 1×10^3 cells/ml, no visible turbidity): < 2.0 U/ml
Effect on exponential culture, absorbance at 660 nm (Listeria monocytogenes [4]): not only inhibitory but also bacteriocidal
Effect of heating on the bacteriocin ([5]; heating to 100° C. in water): unaffected
Effect of proteolytic enzymes on the bacteriocin ([5]; in vitro mixing with protease, papain or alpha-chymotrypsin): inactivated
Effect of other enzymes on the bacteriocin ([5]; phospholipase C, lysozyme, Dnase and RNase): unaffected
Growth of Listeria at 24 h (Listeria monocytogenes [6]): 0 cfu/g
Inhibitory activity against other gram positive bacteria [7]: No activity was found
Growth of Listeria at 24 h (Listeria monocytogenes [8]; dressed Cottage cheese pH 5.1, 4° C., LM 6.5 × 10^3 cells per gram, PA-1 10 U/g): 0 cfu/g
Growth of Listeria at 24 h (Listeria monocytogenes [8]; dressed Cottage cheese pH 5.1, 4° C., LM 6.5 × 10^3 cells per gram, PA-1 50 U/g): 0 cfu/g
Growth of Listeria at 24 h (Listeria monocytogenes [8]; dressed Cottage cheese, 4° C., no LM added, PA-1 50 U/g): 0 cfu/g

From patent publication US4929445A, “Method for inhibiting Listeria monocytogenes using a bacteriocin” (Microlife Technics, Inc., priority 1988, dated 1990)
